# In patent US10933061B2 (Shepherd Therapeutics, Inc., priority 2017, dated 2021):
# Values joined by “and” are separate entries in the source; they are usually repeats but may differ in a detail not shown here. Identical values can stand only once. Like-named read-outs stand apart in the source and are kept apart here.
# Key:
# [1] = tested on: carcinoid tumor cell line STC-1; test: Chou-Talalay combination assay, Cell Titer Glo; assay type: cell-based; conditions: combination with pyrvinium pamoate, 72 hour incubation
# Description: (§1) Following a 72 hour incubation, cell viability was determined using Cell Titer Glo.
# [2] = tested on: TC-71 Ewing's sarcoma cells; test: Chou-Talalay combination assay, Cell Titer Glo; assay type: cell-based; conditions: combination with pyrvinium pamoate, 72 hour incubation
# Description: as §1
# [3] = tested on: SNU-16 gastric carcinoma cells; test: Chou-Talalay combination assay, Cell Titer Glo; assay type: cell-based; conditions: 72 hour incubation; for CI range: combination with pyrvinium pamoate
# Description: as §1
# [4] = tested on: CCC-5 cholangiocarcinoma cells; test: Chou-Talalay combination assay, Cell Titer Glo; assay type: cell-based; conditions: combination with pyrvinium pamoate, 72 hour incubation
# Description: as §1
# [5] = tested on: GIST-1 gastrointestinal stromal tumor cells; test: Chou-Talalay combination assay, Cell Titer Glo; assay type: cell-based; conditions: 72 hour incubation; for CI range: combination with pyrvinium pamoate
# Description: as §1
# [6] = tested on: Rh30 rhabdomyosarcoma cells; test: Chou-Talalay combination assay, Cell Titer Glo; assay type: cell-based; conditions: combination with pyrvinium pamoate, 72 hour incubation
# Description: as §1
# [7] = tested on: OE-33 esophageal carcinoma cells; test: Chou-Talalay combination assay, Cell Titer Glo; assay type: cell-based; conditions: combination with pyrvinium pamoate, 72 hour incubation
# Description: as §1
# [8] = tested on: Rh41 rhabdomyosarcoma cells; test: Chou-Talalay combination assay, Cell Titer Glo; assay type: cell-based; conditions: combination with pyrvinium pamoate, 72 hour incubation
# Description: as §1
# [9] = tested on: NCI-H295R adrenocortical carcinoma cells; test: Chou-Talalay combination assay, Cell Titer Glo; assay type: cell-based; conditions: combination with pyrvinium pamoate, 72 hour incubation
# Description: as §1
# [10] = tested on: Colo-205 colorectal carcinoma cells; test: Chou-Talalay combination assay, Cell Titer Glo; assay type: cell-based; conditions: combination with pyrvinium pamoate, 72 hour incubation
# Description: as §1
# [11] = tested on: BxPC-3 pancreatic carcinoma cells; test: Chou-Talalay combination assay, Cell Titer Glo; conditions: 72 hour incubation; for CI range: combination with pyrvinium pamoate
# Description: as §1
# [12] = tested on: COV362 ovarian carcinoma cells; test: Chou-Talalay combination assay, Cell Titer Glo; assay type: cell-based; conditions: combination with pyrvinium pamoate, 72 hour incubation
# Description: as §1
# [13] = tested on: SK-LMS-1 leiomyosarcoma cells; test: Chou-Talalay combination assay, Cell Titer Glo; assay type: cell-based; conditions: combination with pyrvinium pamoate, 72 hour incubation
# Description: as §1
# [14] = tested on: Hs766t pancreatic carcinoma cells; test: Chou-Talalay combination assay, Cell Titer Glo; assay type: cell-based; conditions: combination with pyrvinium pamoate, 72 hour incubation
# Description: as §1
# [15] = tested on: TOV-112D ovarian carcinoma cells; test: Chou-Talalay combination assay, Cell Titer Glo; assay type: cell-based; conditions: 72 hour incubation; for CI range: combination with pyrvinium pamoate
# Description: as §1
# [16] = tested on: TC-32 Ewing's sarcoma cells; test: Chou-Talalay combination assay, Cell Titer Glo; assay type: cell-based; conditions: combination with pyrvinium pamoate, 72 hour incubation
# Description: as §1
# [17] = tested on: TFK-1 cholangiocarcinoma cells; test: Chou-Talalay combination assay, Cell Titer Glo; assay type: cell-based; conditions: combination with pyrvinium pamoate, 72 hour incubation
# Description: as §1
# [18] = tested on: HCT116 colorectal carcinoma cells; test: Chou-Talalay combination assay, Cell Titer Glo; assay type: cell-based; conditions: combination with pyrvinium pamoate, 72 hour incubation
# Description: as §1
# [19] = tested on: Flo-1 esophageal carcinoma cells; test: Chou-Talalay combination assay, Cell Titer Glo; assay type: cell-based; conditions: 72 hour incubation; for CI range: combination with pyrvinium pamoate
# Description: as §1
# [20] = tested on: UM-Chor1 chordoma cell line; test: Chou-Talalay combination assay, Cell Titer Glo; assay type: cell-based; conditions: combination with pyrvinium pamoate, 72 hour incubation
# Description: as §1
# [21] = tested on: SW13 adrenocortical carcinoma cells; test: Chou-Talalay combination assay, Cell Titer Glo; assay type: cell-based; conditions: combination with pyrvinium pamoate, 72 hour incubation
# Description: as §1
# [22] = tested on: Kato-III gastric carcinoma cells; test: Chou-Talalay combination assay, Cell Titer Glo; assay type: cell-based
# Description: as §1
# [23] = tested on: LO-68 mesothelioma cells; test: Chou-Talalay combination assay, Cell Titer Glo; assay type: cell-based; conditions: combination with pyrvinium pamoate, 72 hour incubation
# Description: as §1
# [24] = tested on: SK-N-AS neuroblastoma cells; test: Chou-Talalay combination assay, Cell Titer Glo; assay type: cell-based
# Description: as §1
# [25] = tested on: CHP-212 neuroblastoma cells; test: Chou-Talalay combination assay, Cell Titer Glo; assay type: cell-based; conditions: combination with pyrvinium pamoate, 72 hour incubation
# Description: as §1
# [26] = tested on: JU-77 mesothelioma cells; test: Chou-Talalay combination assay, Cell Titer Glo; assay type: cell-based; conditions: combination with pyrvinium pamoate, 72 hour incubation
# Description: as §1
# [27] = tested on: SW-1271 small cell lung carcinoma cells; test: Chou-Talalay combination assay, Cell Titer Glo; assay type: cell-based; conditions: 72 hour incubation
# Description: as §1
# [28] = tested on: SK-UT-1B leiomyosarcoma cells; test: Chou-Talalay combination assay, Cell Titer Glo; assay type: cell-based; conditions: combination with pyrvinium pamoate, 72 hour incubation
# Description: as §1
# [29] = tested on: DMS-114 small cell lung carcinoma cells; test: Chou-Talalay combination assay, Cell Titer Glo; assay type: cell-based; conditions: 72 hour incubation
# Description: as §1
# [30] = tested on: SK-UT-1 leiomyosarcoma cells; test: Chou-Talalay combination assay, Cell Titer Glo; assay type: cell-based; conditions: 72 hour incubation; for CI range: combination with pyrvinium pamoate
# Description: as §1
# [31] = tested on: HepG2 hepatocellular carcinoma cells; test: Chou-Talalay combination assay, Cell Titer Glo; conditions: combination with pyrvinium pamoate, 72 hour incubation
# Description: as §1
# [32] = tested on: HepG2-C3A hepatocellular carcinoma cells; test: Chou-Talalay combination assay, Cell Titer Glo; conditions: combination with pyrvinium pamoate, 72 hour incubation
# Description: as §1
# [33] = tested on: rare cancer tumor cell lines; test: Cell viability, panel of rare cancer tumor cell lines; assay type: cell-based
# Description: In all cases, including those described below, the viable cells were determined using the CellTiter Glo® kit and a dose response curve to calculate the IC50 was generated using the PRISM software.
# [34] = Kato-III, combination with pyrvinium pamoate, 72 hour incubation
# [35] = SK-N-AS, combination with pyrvinium pamoate, 72 hour incubation
# [36] = combination with pyrvinium pamoate
SMILES,CI range [1],CI range [2],CI range [5],CI range [6],CI range [7],CI range [8],CI range [9],CI range [11],CI range [12],CI range [13],CI range [14],CI range [16],CI range [20],CI range [21],CI range [25],CI range [28],also measured
"O=c1[nH]cc(F)c(=O)[nH]1 [5-FU, 5-Fluorouracil]",0.596-0.841,0.409-0.821,0.168-0.798,0.001-0.887,0.481-0.715,0.642-0.831,0.529-0.780,0.539-0.785,0.472-0.723,0.421-0.814,0.328-0.504 and 0.230-0.589,0.337-0.843,0.489-0.886,0.506-0.834,,,"CI range [3]: 0.547-0.850; CI range [4]: 0.319-0.892; CI range [10]: 0.094-0.867; Synergy with pyrvinium pamoate [15]: No; CI range [17]: 0.303-0.814; CI range [18]: 0.806-0.886; CI range [19]: 0.378-0.859; Synergy with pyrvinium pamoate [22, 34]: No"
N.N.O=C([O-])C1(C(=O)[O-])CCC1.[Pt+2] [Carboplatin],,0.597-0.878,,0.770-0.821,0.647-0.863,0.162-0.820,0.190-0.896,,0.447-0.837,0.366-0.812,,0.101-0.836,,0.408-0.891,0.519-0.846,,"CI range [23]: 0.410-0.801; CI range [3]: 0.267-0.860 and 0.261-0.842; Synergy with pyrvinium pamoate [5]: No; CI range [24, 35]: 0.107-0.843; CI range [15]: 0.506-0.845; CI range [19]: 0.253-0.892; CI range [26]: 0.385-0.853; CI range [22, 34]: 0.221-0.887"
N.N.[Cl][Pt][Cl] [Cisplatin],0.506-0.861,0.329-0.832,0.177-0.732,0.693-0.877,,0.130-0.874,0.314-0.798,0.459-0.775 and 0.472-0.882,0.443-0.859,0.014-0.783,0.458-0.875,0.588-0.878,0.468-0.887,0.309-0.886,0.694-0.756,0.407-0.742 and 0.337-0.809,"CI range [27, 36]: 0.568-0.895; CI range [4]: 0.326-0.892; CI range [24, 35]: 0.130-0.882; CI range [15]: 0.439-0.845; CI range [17]: 0.058-0.361; CI range [29, 36]: 0.572-0.883; Synergy with pyrvinium pamoate [30]: No; CI range [22, 34]: 0.386-0.842"
O=P1(N(CCCl)CCCl)NCCCO1 (stereo not drawn) [Cyclophosphamide],0.167-0.751,0.718-0.722,,0.083-0.786,,0.274-0.867,,,,,,,,,0.256-0.876,,CI range [24]: Yes- (0.098-0.858)
CC(=O)O[C@@]12CO[C@@H]1C[C@H](O)[C@@]1(C)C(=O)[C@H](O)C3=C(C)[C@@H](OC(=O)[C@H](O)[C@@H](NC(=O)OC(C)(C)C)c4ccccc4)C[C@@](O)([C@@H](OC(=O)c4ccccc4)[C@H]21)C3(C)C [Docetaxel],,,,,,,,,,,,,,,,,Synergy with pyrvinium pamoate [15]: No
C#Cc1cccc(Nc2ncnc3cc(OCCOC)c(OCCOC)cc23)c1 [Erlotinib],,,,,,,,,,,,,0.308-0.883,,,,
COc1cc([C@@H]2c3cc4c(cc3[C@@H](O[C@@H]3O[C@@H]5CO[C@@H](C)O[C@H]5[C@H](O)[C@H]3O)[C@H]3COC(=O)[C@H]23)OCO4)cc(OC)c1O [Etoposide],0.281-0.794,0.677-0.883,,,,,0.717-0.864,,,,,0.593-0.875,,0.487-0.623,0.763-0.891,,"Synergy with pyrvinium pamoate [27]: No; CI range [10]: 0.107-0.751; CI range [24, 35]: 0.638-0.834; CI range [18]: 0.716-0.836; Synergy with pyrvinium pamoate [29]: No"
Nc1ccn([C@@H]2O[C@H](CO)[C@@H](O)C2(F)F)c(=O)n1 [Gemcitabine],,,,,,,,0.417-0.851,,0.311-0.774,0.378-0.822,,,,,0.516-0.687,CI range [23]: 0.047-0.871; CI range [31]: 0.613-0.899; CI range [32]: 0.201-0.566; CI range [4]: 0.008-0.729; CI range [17]: 0.290-0.851; CI range [26]: 0.404-0.725; CI range [30]: (0.118-0.888)
O=P1(NCCCl)OCCCN1CCCl (stereo not drawn) [Ifosfamide],,,,,,,,,,,,,,,,0.285-0.315,
Cc1ccc(NC(=O)c2ccc(CN3CCN(C)CC3)cc2)cc1Nc1nccc(-c2cccnc2)n1 [Imatinib],,,0.203-0.726,,,,,,,,,,,,,,
CCc1c2c(nc3ccc(OC(=O)N4CCC(N5CCCCC5)CC4)cc13)-c1cc3c(c(=O)n1C2)COC(=O)[C@]3(O)CC [Irinotecan],,0.466-0.803,0.039-0.837,0.324-0.872,0.438-0.783,0.068-0.711,0.285-0.855,,0.445-0.697,0.362-0.885,,0.612-0.764,0.580-0.772,0.652-0.827,0.719-0.891,0.235-0.705,"Synergy with pyrvinium pamoate [3]: No; CI range [10]: 0.158-0.866; Synergy with pyrvinium pamoate [11]: No; CI range [15]: 0.414-0.760; CI range [18]: 0.582-0.878; Synergy with pyrvinium pamoate [19]: No; Synergy with pyrvinium pamoate [30]: No; CI range [22, 34]: 0.258-0.892"
O=C1[O][Pt]2([NH][C@@H]3CCCC[C@H]3[NH]2)[O]C1=O [Oxaliplatin],,,,,0.447-0.703,,,0.254-0.802,,,0.340-0.884,,,,,,CI range [31]: 0.354-0.865; CI range [3]: 0.083-0.831 and 0.089-0.851; CI range [32]: 0.307-0.870; CI range [18]: 0.375-0.889; CI range [19]: 0.558-0.871; CI range [22]: Yes- (0.384-0.781)
CC(=O)O[C@H]1C(=O)[C@@]2(C)[C@H]([C@H](OC(=O)c3ccccc3)[C@]3(O)C[C@H](OC(=O)[C@H](O)[C@@H](NC(=O)c4ccccc4)c4ccccc4)C(C)=C1C3(C)C)[C@]1(OC(C)=O)CO[C@@H]1C[C@@H]2O [Paclitaxel],0.479-0.873,0.254-0.721,0.399-0.808,0.362-0.829,0.527-0.896,0.073-0.876,0.571-0.887,0.613-0.899,0.451-0.761,0.078-0.847,0.232-0.830,0.586-0.884,0.573-0.862,0.552-0.870,0.545-0.868,0.262-0.773,"CI range [3]: 0.178-0.820; CI range [4]: 0.255-0.847 and 0.296-0.785; CI range [24, 35]: 0.367-0.857; CI range [15]: 0.104-0.877; CI range [17]: 0.277-0.894; CI range [19]: 0.640-0.888; CI range [30]: (0.089-0.330); CI range [22, 34]: 0.076-0.898"
CCC1=C[C@@H]2CN(C1)Cc1c([nH]c3ccccc13)[C@@](C(=O)OC)(c1cc3c(cc1OC)N(C)[C@H]1[C@@](O)(C(=O)OC)[C@H](OC(C)=O)[C@]4(CC)C=CCN5CC[C@]31[C@@H]54)C2 [Vinorelbine],,,,,,,,,,,,,,,,,CI range [23]: 0.163-0.845; CI range [26]: 0.454-0.717
"Cc1cc(/C=C/c2ccc3cc(N(C)C)ccc3[n+]2C)c(C)n1-c1ccccc1 [pyrvinium pamoate, 3-carboxy-1-[(3-carboxy-2-oxidonaphthalen-1-yl)methyl]naphthalen-2-olate;2-[(E)-2-(2,5-dimethyl-1-phenylpyrrol-3-yl)ethenyl]-N,N,1-trimethylquinolin-1-ium-6-amine]",,,,,,,,,,,,,,,,,"growth of multiple rare cancer cell lines ([33]; FIG. 14): inhibits growth; IC50 ([33]; several rare cancer tumor cell lines, 72 hours, read-out: IC50s ranging): 2 to 1000 nM"
